Experimental data reported in ChEMBL document CHEMBL3856231 (J Med Chem, 2016).

What was measured:
[1] = Half life in human liver microsomes by LC/MS/MS analysis; format: ADME
[2] = target: T1, ALK tyrosine kinase receptor (Homo sapiens, UniProt Q9UM73); assay: Inhibition of human ALK expressed in baculovirus using recombinant GST PLC-gamma as substrate assessed as phosphorylation of the substrate after 15 mins by TRF assay
Target sequence in this assay (Q9UM73 whole entry): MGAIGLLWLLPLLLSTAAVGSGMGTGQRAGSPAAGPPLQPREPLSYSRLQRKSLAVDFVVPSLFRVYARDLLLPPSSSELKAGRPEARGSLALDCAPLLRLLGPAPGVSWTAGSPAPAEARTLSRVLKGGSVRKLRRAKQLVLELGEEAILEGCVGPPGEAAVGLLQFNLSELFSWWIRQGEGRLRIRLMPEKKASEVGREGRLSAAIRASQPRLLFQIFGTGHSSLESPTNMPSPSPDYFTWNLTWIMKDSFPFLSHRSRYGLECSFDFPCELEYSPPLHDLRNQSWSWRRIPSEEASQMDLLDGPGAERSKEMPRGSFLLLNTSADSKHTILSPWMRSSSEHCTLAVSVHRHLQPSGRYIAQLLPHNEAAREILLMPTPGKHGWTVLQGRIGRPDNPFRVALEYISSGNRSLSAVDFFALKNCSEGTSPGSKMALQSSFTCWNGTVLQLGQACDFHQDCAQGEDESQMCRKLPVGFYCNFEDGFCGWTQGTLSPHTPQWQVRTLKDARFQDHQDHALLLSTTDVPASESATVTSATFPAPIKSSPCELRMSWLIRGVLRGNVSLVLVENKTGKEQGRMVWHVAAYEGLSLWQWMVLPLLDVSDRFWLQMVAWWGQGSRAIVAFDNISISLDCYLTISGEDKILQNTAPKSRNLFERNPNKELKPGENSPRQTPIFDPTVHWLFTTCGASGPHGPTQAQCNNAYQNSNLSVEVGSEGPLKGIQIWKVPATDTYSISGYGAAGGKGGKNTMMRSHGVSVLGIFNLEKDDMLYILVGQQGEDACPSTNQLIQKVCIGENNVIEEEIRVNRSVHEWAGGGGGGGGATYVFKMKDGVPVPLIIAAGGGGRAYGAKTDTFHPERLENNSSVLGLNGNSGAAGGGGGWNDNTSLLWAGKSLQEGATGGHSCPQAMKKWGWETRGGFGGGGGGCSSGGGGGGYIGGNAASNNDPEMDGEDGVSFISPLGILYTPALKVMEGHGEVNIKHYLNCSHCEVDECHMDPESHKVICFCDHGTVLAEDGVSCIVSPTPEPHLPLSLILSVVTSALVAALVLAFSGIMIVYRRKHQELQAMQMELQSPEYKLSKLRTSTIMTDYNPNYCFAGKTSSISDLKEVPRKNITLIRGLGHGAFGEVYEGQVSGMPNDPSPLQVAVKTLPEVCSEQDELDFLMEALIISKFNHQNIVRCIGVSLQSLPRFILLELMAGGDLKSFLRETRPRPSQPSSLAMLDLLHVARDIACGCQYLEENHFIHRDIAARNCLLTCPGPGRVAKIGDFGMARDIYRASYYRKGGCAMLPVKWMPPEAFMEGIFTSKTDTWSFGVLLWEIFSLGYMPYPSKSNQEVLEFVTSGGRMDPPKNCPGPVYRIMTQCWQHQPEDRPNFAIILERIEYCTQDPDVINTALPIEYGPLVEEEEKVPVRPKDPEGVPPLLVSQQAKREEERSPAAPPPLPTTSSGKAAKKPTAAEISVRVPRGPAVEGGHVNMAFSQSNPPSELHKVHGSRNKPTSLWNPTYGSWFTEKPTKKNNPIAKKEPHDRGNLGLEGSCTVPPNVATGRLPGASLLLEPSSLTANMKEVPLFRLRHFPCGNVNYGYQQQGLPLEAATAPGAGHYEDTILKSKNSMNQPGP

[3] = Half life in rat liver microsomes by LC/MS/MS analysis; format: ADME
Insulin receptor = Insulin receptor (Homo sapiens, UniProt P06213)
[4] = Drug level in rat liver microsomes treated with (1S,2S,3R,4R)-3-(5-chloro-2-((S)-1-methoxy-7-morpholino-6,7,8,9-tetrahydro-5H-benzo[7]annulen-2-ylamino)pyrimidin-4-ylamino)bicyclo[2.2.1]hept-5-ene-2-carboxamide at 10 uM after 120 mins in presence of NADPH by LC/MS/MS analysis; format: ADME; conditions: 2 h
[5] = Drug level in human liver microsomes treated with (1S,2S,3R,4R)-3-(5-chloro-2-((S)-1-methoxy-7-morpholino-6,7,8,9-tetrahydro-5H-benzo[7]annulen-2-ylamino)pyrimidin-4-ylamino)bicyclo[2.2.1]hept-5-ene-2-carboxamide at 10 uM after 120 mins in presence of NADPH by LC/MS/MS analysis; format: ADME; conditions: 2 h
[6] = Half life in cynomolgus monkey liver microsomes by LC/MS/MS analysis; format: ADME, Macaca fascicularis
[7] = target: Voltage-gated inwardly rectifying potassium channel KCNH2 (Homo sapiens, UniProt Q12809); assay: Inhibition of human ERG
Voltage-gated inwardly rectifying potassium channel KCNH2, sequence (Q12809 whole entry): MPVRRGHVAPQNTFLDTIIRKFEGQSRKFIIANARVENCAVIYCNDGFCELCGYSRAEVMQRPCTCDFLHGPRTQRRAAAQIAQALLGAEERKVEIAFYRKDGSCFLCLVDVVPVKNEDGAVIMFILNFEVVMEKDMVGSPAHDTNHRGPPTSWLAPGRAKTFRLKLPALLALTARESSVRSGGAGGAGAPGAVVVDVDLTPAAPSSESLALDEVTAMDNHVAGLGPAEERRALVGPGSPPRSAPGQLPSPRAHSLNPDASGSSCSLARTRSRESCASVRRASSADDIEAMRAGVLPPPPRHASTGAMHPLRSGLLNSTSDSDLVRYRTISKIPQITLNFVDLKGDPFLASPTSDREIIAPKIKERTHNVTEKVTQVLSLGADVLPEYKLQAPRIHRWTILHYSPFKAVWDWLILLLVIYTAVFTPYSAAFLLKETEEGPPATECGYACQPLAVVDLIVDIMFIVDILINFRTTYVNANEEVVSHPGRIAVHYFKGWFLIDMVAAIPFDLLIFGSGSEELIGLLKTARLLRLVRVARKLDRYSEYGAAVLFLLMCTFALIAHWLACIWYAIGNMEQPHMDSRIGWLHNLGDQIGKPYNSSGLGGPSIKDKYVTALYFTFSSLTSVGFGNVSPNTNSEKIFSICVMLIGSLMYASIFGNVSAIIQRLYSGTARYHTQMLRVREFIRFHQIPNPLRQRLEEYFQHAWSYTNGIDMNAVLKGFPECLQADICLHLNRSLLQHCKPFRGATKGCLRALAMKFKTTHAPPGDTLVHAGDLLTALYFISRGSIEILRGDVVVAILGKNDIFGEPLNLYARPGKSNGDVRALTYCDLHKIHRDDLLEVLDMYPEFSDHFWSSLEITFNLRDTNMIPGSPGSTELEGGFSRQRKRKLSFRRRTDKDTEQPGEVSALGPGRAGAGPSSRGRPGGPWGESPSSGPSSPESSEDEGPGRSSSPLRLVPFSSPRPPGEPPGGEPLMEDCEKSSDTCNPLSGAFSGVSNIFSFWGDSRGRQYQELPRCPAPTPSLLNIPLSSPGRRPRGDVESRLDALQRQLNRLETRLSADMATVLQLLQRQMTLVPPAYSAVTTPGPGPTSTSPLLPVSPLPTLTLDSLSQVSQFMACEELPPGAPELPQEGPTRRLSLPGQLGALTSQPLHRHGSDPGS

Cytochrome P450 2C19 = Cytochrome P450 2C19 (Homo sapiens, UniProt P33261); assay: Inhibition of CYP2C19 in human liver microsomes using S-mephenytoin as substrate in presence of NADPH by LC/MS/MS analysis; format: ADME
Cytochrome P450 2C19, sequence (P33261 whole entry): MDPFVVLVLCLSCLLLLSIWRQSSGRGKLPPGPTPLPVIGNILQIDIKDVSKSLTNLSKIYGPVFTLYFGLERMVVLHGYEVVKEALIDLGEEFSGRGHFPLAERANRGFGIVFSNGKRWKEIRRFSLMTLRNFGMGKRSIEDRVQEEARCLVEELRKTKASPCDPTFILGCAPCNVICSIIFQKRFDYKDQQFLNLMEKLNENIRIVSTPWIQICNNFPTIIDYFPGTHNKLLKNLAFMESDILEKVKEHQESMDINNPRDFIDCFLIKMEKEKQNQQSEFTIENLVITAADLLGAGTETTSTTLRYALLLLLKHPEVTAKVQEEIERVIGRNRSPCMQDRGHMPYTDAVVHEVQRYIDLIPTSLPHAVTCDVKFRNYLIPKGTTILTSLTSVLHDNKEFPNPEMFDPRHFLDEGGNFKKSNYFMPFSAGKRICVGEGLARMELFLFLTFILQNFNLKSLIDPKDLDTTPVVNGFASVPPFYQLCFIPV

Cytochrome P450 1A2 = target: T2, Cytochrome P450 1A2 (Homo sapiens, UniProt P05177); assay: Inhibition of CYP1A2 in human liver microsomes using phenacetin as substrate in presence of NADPH by LC/MS/MS analysis; format: ADME
T2 sequence (P05177 whole entry): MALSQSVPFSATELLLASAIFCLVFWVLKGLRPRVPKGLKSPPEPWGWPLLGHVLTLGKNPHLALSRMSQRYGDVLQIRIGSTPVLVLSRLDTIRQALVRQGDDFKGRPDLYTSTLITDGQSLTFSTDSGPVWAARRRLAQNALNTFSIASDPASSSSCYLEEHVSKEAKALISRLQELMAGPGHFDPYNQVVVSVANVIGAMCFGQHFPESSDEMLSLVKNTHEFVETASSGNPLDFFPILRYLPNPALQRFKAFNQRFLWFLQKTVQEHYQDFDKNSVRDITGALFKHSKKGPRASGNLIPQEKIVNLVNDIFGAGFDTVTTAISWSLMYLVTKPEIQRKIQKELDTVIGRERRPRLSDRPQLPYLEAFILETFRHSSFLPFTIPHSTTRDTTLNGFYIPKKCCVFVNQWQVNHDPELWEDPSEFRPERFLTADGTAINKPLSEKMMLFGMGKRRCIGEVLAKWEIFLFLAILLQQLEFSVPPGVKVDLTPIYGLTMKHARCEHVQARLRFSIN

[8] = target: T1, ALK tyrosine kinase receptor; assay: Inhibition of NPM-ALK phosphorylation in human SUP-M2 cells after 2 to 3 hrs by ELISA; format: cell-based
Target sequence in this assay (Q9UM73 19-1620 limits assumed): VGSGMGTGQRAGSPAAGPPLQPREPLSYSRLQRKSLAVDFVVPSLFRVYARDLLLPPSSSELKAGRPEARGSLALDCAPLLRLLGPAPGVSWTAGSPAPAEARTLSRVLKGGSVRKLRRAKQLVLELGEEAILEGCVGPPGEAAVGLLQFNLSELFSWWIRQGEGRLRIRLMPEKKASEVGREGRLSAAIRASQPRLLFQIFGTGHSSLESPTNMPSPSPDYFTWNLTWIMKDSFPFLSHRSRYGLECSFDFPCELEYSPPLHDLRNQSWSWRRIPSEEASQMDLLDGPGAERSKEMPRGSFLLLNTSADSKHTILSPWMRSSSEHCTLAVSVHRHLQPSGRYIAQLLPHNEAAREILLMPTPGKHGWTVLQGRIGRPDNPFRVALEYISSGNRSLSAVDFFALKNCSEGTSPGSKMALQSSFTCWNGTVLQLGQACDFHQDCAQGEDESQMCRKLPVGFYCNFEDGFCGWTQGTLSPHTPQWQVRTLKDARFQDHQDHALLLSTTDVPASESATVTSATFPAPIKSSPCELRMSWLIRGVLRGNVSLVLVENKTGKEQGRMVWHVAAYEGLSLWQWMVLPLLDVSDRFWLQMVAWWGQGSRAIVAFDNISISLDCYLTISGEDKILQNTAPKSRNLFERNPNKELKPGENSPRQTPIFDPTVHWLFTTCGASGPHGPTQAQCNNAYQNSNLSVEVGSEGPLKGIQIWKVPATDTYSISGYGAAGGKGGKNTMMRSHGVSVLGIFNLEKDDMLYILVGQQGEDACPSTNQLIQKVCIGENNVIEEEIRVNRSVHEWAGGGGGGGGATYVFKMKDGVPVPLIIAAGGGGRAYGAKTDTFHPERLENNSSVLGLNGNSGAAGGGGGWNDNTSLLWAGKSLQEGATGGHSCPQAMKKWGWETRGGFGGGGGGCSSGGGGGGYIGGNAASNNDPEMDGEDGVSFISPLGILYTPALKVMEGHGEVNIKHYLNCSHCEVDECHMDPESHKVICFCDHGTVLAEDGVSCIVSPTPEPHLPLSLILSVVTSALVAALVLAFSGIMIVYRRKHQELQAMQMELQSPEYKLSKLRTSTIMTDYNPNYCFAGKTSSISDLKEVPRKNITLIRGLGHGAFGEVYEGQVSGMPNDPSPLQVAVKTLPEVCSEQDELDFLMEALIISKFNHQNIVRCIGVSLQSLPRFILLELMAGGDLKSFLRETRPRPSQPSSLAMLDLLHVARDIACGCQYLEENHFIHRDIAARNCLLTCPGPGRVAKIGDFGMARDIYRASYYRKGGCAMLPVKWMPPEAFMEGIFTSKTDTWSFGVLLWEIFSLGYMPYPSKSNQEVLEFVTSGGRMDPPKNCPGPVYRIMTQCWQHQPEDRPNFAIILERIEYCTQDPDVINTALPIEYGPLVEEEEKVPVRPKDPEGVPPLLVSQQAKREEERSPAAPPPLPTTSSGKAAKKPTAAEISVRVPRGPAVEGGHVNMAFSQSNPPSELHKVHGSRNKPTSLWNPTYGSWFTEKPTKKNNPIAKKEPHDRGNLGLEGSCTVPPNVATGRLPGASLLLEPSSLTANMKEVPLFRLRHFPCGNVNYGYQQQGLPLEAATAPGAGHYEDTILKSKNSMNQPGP

Cytochrome P450 2D6 = Cytochrome P450 2D6 (Homo sapiens, UniProt P10635); assay: Inhibition of CYP2D6 in human liver microsomes using dextromethorphan as substrate in presence of NADPH by LC/MS/MS analysis; format: ADME
[9] = Oral bioavailability in Sprague-Dawley rat at 5 mg/kg by LC/MS/MS analysis; format: ADME, organism-based; conditions: in vivo
Cytochrome P450 2C9 = Cytochrome P450 2C9 (Homo sapiens, UniProt P11712); assay: Inhibition of CYP2C9 in human liver microsomes using diclofenac as substrate in presence of NADPH by LC/MS/MS analysis; format: ADME
Cytochrome P450 3A4 = Cytochrome P450 3A4 (Homo sapiens, UniProt P08684); assay: Inhibition of CYP3A4 in human liver microsomes using testosterone/midazolam as substrate in presence of NADPH by LC/MS/MS analysis; format: ADME
[10] = AUC (0 to infinity) in Sprague-Dawley rat at 5 mg/kg, po by LC/MS/MS analysis; format: ADME, organism-based; design: dose 5 mg/kg, time infinity, route oral; conditions: in vivo
[11] = Half life in CD-1 mouse liver microsomes by LC/MS/MS analysis; format: ADME
[12] = Apparent permeability from apical to basolateral side in human Caco2 cells; format: ADME, cell-based; conditions: Caco-2
[13] = Drug metabolism in human liver microsomes assessed as methyl group loss from N-methylmethanesulfonamide; format: ADME
[14] = AUC (0 to 6 hrs) in rat by LC/MS/MS analysis; format: ADME; design: time < 6 hr; conditions: in vivo
[15] = Drug metabolism in rat liver microsomes assessed as methyl group loss from N-methylmethanesulfonamide; format: ADME
[16] = Drug metabolism in cynomolgus monkey liver microsomes assessed as methyl group loss from N-methylmethanesulfonamide; format: ADME, Macaca fascicularis
[17] = Drug metabolism in mouse liver microsomes assessed as methyl group loss from N-methylmethanesulfonamide; format: ADME

Structure (SMILES) | half-life [1] | IC50 [2] | half-life [3] | IC50 [8] | bioavailability [9] | IC50 [7] | further results
COc1c(Nc2ncc(Cl)c(N[C@H]3[C@@H](C(N)=O)[C@@H]4C=C[C@H]3C4)n2)ccc2c1CC(N1CCOCC1)CCC2 (stereo partly specified) |  | 39 nM |  |  |  |  | IC50 (Insulin receptor): > 10000 nM
COc1c(Nc2ncc(Cl)c(N[C@H]3[C@@H](C(N)=O)[C@H]4C[C@@H]3C3OC34)n2)ccc2c1CC[C@@H](N1CCOCC1)CC2 (stereo partly specified) |  |  |  |  |  |  | Drug metabolism [4]: Metabolite_Detected; Drug metabolism [5]: Metabolite_Detected
COc1c(Nc2ncc(Cl)c(N[C@H]3[C@@H](C(N)=O)[C@@H]4C=C[C@H]3C4)n2)ccc2c1CCC[C@H](N1CCN(C)CC1)C2 | 15 min | 9 to 14 nM | 40 min | 200 nM | 11% | 9100 nM | half-life [6]: 9 min; IC50 (Cytochrome P450 2C19): > 10000 nM; IC50 (Cytochrome P450 1A2): > 10000 nM; IC50 (Cytochrome P450 2D6): > 10000 nM; IC50 (Cytochrome P450 2C9): > 10000 nM; IC50 (Cytochrome P450 3A4): > 10000 nM; AUC(0-inf) [10]: 4400 ng·h/mL; half-life [11]: 40 min
COc1c(Nc2ncc(Cl)c(N[C@H]3[C@@H](C(N)=O)[C@@H]4C=C[C@H]3C4)n2)ccc2c1CCC[C@@H](N1CCN(CCO)CC1)C2 |  | 6.3 nM |  | 50 nM |  | > 10000 nM | 
COc1c(Nc2ncc(Cl)c(N[C@H]3[C@@H](C(N)=O)[C@@H]4C=C[C@H]3C4)n2)ccc2c1CCC[C@H](N1CCOCC1)C2 | 6 min | 7 nM | 5 min |  |  |  | 
COCCNC1CCCc2c(ccc(Nc3ncc(Cl)c(N[C@H]4[C@@H](C(N)=O)[C@@H]5C=C[C@H]4C5)n3)c2OC)C1 (stereo partly specified) | 15 min | 7 nM | 31 min |  |  |  | 
CNC(=O)c1ccccc1Nc1nc(Nc2ccc3c(c2OC)CCC[C@@H](N2CCN(CCO)CC2)C3)ncc1Cl | 40 min |  | 40 min |  | 18% | > 10000 nM | half-life [6]: 24 min; IC50 (Cytochrome P450 2C19): > 5600 nM; IC50 (Cytochrome P450 1A2): > 5600 nM; IC50 (Cytochrome P450 2D6): > 5600 nM; IC50 (Cytochrome P450 2C9): > 5600 nM; AUC(0-inf) [10]: 1200 ng·h/mL; half-life [11]: 40 min; Papp A→B [12]: > 1 ×10⁻⁶ cm/s
COc1c(Nc2ncc(Cl)c(N[C@H]3[C@@H](C(N)=O)[C@@H]4C=C[C@H]3C4)n2)ccc2c1CCC[C@H](N1CCN(CCO)CC1)C2 | 18 min | 5.8 nM | 15 min | 30 nM | 10% | > 10000 nM | 
CNC(=O)c1ccccc1Nc1nc(Nc2ccc3c(c2OC)CCCC(N2CCN(CCO)CC2)C3)ncc1Cl (racemic) | > 40 min |  | > 40 min |  | 47% | ≥ 10000 nM | 
COc1c(Nc2ncc(Cl)c(Nc3ccccc3N3CCCS3(=O)=O)n2)ccc2c1CCCC(N1CCN(CCO)CC1)C2 (racemic) | 16 min | 6.1 nM | 38 min | 60 nM | 48% |  | 
COc1ccccc1Nc1nc(Nc2ccc3c(c2OC)CCCC(N2CCN(CCO)CC2)C3)ncc1Cl (racemic) |  | 44 nM |  |  |  |  | 
COc1c(Nc2ncc(Cl)c(Nc3ccccc3NS(C)(=O)=O)n2)ccc2c1CCCC(N1CCN(CCO)CC1)C2 (racemic) | 40 min | 18 nM | 40 min |  |  |  | IC50 (Insulin receptor): > 2000 nM
COc1c(Nc2ncc(Cl)c(N[C@H]3[C@@H](C(N)=O)[C@@H]4C=C[C@H]3C4)n2)ccc2c1CCCC(N1CCN(C)CC1)C2 (single isomer, unassigned) | 11 min | 9 nM | 39 min | 200 nM | 11% | 7900 nM | half-life [6]: 7 min; IC50 (Cytochrome P450 2C19): > 10000 nM; IC50 (Cytochrome P450 1A2): > 10000 nM; IC50 (Cytochrome P450 2D6): > 10000 nM; IC50 (Cytochrome P450 2C9): > 10000 nM; IC50 (Cytochrome P450 3A4): > 10000 nM; AUC(0-inf) [10]: 5530 ng·h/mL; half-life [11]: 40 min

Further lines, with some results ahead:

half-life [1] | IC50 [2] | half-life [3] | IC50 [8] | bioavailability [9] | Structure (SMILES) | IC50 [7] | further results
5 min | 1.5 nM | 5 min |  |  | COc1c(Nc2ncc(Cl)c(N[C@H]3[C@@H](C(N)=O)[C@@H]4C=C[C@H]3C4)n2)ccc2c1CCC[C@@H](N1CCOCC1)C2 |  | 
18 min | 4 nM | 40 min | 40 nM | 28% | COc1c(Nc2ncc(Cl)c(Nc3ccccc3S(=O)(=O)N(C)C)n2)ccc2c1CCCC(N1CCN(CCO)CC1)C2 (racemic) | 240 nM | 
40 min | 2.3 nM | 40 min | 20 nM | 19% | COc1c(Nc2ncc(Cl)c(Nc3ccccc3-n3cccn3)n2)ccc2c1CCCC(N1CCN(CCO)CC1)C2 (racemic) | 3700 nM | 
13 min | 2 nM | 37 min | 30 nM | 38% | COc1c(Nc2ncc(Cl)c(Nc3ccccc3N(C)S(C)(=O)=O)n2)ccc2c1CCCC(N1CCN(CCO)CC1)C2 (racemic) |  | half-life [6]: 8 min; Drug metabolism [13]: Metabolite_Detected; AUC(0-t) at 6 h [14]: 3960 ng·h/mL; Drug metabolism [15]: Metabolite_Detected; half-life [11]: 37 min; Drug metabolism [16]: Metabolite_Detected; Drug metabolism [17]: Metabolite_Detected
18 min | 5 nM | 22 min | 50 nM | 19% | COc1c(Nc2ncc(Cl)c(Nc3ccccc3-c3nccn3C)n2)ccc2c1CCCC(N1CCN(CCO)CC1)C2 (racemic) |  | 
12 min | 2.3 nM | 33 min | 40 nM | 9% | COc1c(Nc2ncc(Cl)c(Nc3ccccc3N(C)S(C)(=O)=O)n2)ccc2c1CCCC(N1CCN(C)CC1)C2 (racemic) |  | AUC(0-t) at 6 h [14]: 1300 ng·h/mL
